Reference: ChEMBL document CHEMBL5143671, “Discovery of (R)-(3-fluoropyrrolidin-1-yl)(6-((5-(trifluoromethyl)pyridin-2-yl)oxy)quinolin-2-yl)methanone (ABBV-318) and analogs as small molecule Nav1.7/ Nav1.8 blockers for the treatment of pain” (Bioorg Med Chem, 2022)
pIC50: −log10 of the molar value. In brackets after ≈: the same amount, converted by molar mass. Each block holds one compound with its values, some of them ahead of it.

Experiments:
[1] = test system: Rattus norvegicus; test: Antinociceptive activity in monoiodoacetate-induced Sprague-Dawley rat model of osteoarthritis at 3 mg/kg, po administered for 5 days and measured after 180 mins by grip force testing relative to control; type: functional; conditions: time 5 day
[2] = molecular target: Voltage-gated inwardly rectifying potassium channel KCNH2 (Homo sapiens, UniProt Q12809);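 also: hERG channel blockade measured by electrophysiology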
[3] = test system: Rattus norvegicus; test: Antinociceptive activity in monoiodoacetate-induced Sprague-Dawley rat model of osteoarthritis at 10 mg/kg, po administered for 5 days and measured after 180 mins by grip force testing relative to control; type: functional; conditions: time 5 day
[4] = physchem; conditions: phosphate buffer
[5] = in vivo; conditions: Sprague-Dawley, rat, po
[6] = in vitro; conditions: PAMPA
[7] = test system: Rattus norvegicus; test: Antinociceptive activity in monoiodoacetate-induced Sprague-Dawley rat model of osteoarthritis at 30 mg/kg, po administered for 5 days and measured after 180 mins by grip force testing relative to control; type: functional; conditions: time 5 day
[8] = molecular target: Sodium channel protein type 10 subunit alpha (Homo sapiens, UniProt Q9Y5Y9); test: Inhibition of human Nav1.8 by FRET based membrane potential assay
[9] = physchem; conditions: octanol/water
[10] = in vivo; conditions: Sprague-Dawley, rat, iv
[11] = in vitro; conditions: dog, MDCK
[12] = test system: Rattus norvegicus; test: Antiallodynic activity in Sprague-Dawley rat model of L5/L6 spinal nerve ligation-induced neuropathic pain assessed as maximal possible effect at 30 mg/kg, ip; type: functional
[13] = human, microsomes, 0.5 h, 0.5 µM
[14] = Drug concentration in plasma of Sprague-Dawley rat model of L5/L6 spinal nerve ligation-induced neuropathic pain at 3 mg/kg, ip by LC/MS analysis; type: ADME, organism-based; conditions: in vivo
[15] = molecular target: Sodium channel protein type 2 subunit alpha (Homo sapiens, UniProt Q99250); test: Inhibition of recombinant human Nav1.2 expressed in HEK293 cells incubated for 3 mins by FRET based membrane potential assay; type: cell-based
[16] = Drug concentration in plasma of Sprague-Dawley rat model of L5/L6 spinal nerve ligation-induced neuropathic pain at 30 mg/kg, ip by LC/MS analysis; type: ADME, organism-based; conditions: in vivo
[17] = rat, microsomes, 0.5 h, 0.5 µM
[18] = molecular target: T1, Sodium channel protein type 9 subunit alpha (Homo sapiens, UniProt Q15858)
[19] = test system: Rattus norvegicus; test: Antiallodynic activity in Sprague-Dawley rat model of L5/L6 spinal nerve ligation-induced neuropathic pain assessed as maximal possible effect at 10 mg/kg, ip; type: functional
[20] = in vivo; conditions: Sprague-Dawley, rat, po; remark: listed apart in the source
[21] = test system: Rattus norvegicus; test: Antiallodynic activity in Sprague-Dawley rat model of L5/L6 spinal nerve ligation-induced neuropathic pain assessed as maximal possible effect at 3 mg/kg, ip; type: functional
[22] = test system: MDR1; test: in vitro; conditions: dog, MDCK-MDR1
[23] = Ratio of free drug concentration in brain to plasma of rat; type: ADME, cell-free; conditions: brain and plasma
[24] = Drug concentration in plasma of Sprague-Dawley rat model of L5/L6 spinal nerve ligation-induced neuropathic pain at 10 mg/kg, ip by LC/MS analysis; type: ADME, organism-based; conditions: in vivo
[25] = molecular target: Sodium channel protein type 5 subunit alpha (Homo sapiens, UniProt Q14524)
[26] = Clearance in iv dosed dog; type: ADME, organism-based, Canis lupus familiaris; conditions: in vivo
[27] = Cardiotoxicity in conscious dog CV model assessed as effect on PR interval upto 47 uM by ECG analysis; type: toxicity, Canis lupus familiaris
[28] = Drug concentration in plasma of monoiodoacetate-induced chronic Sprague-Dawley rat model of osteoarthritis at 0.3 mg/kg, po administered twice for 1 day; type: ADME, organism-based
[29] = Drug exposure in plasma of rat; type: ADME; conditions: in vivo
[30] = Drug concentration in brain of monoiodoacetate-induced chronic Sprague-Dawley rat model of osteoarthritis at 0.3 mg/kg, po administered twice daily for 5 days; type: ADME, organism-based; conditions: time 5 day, read-out: Ct
[31] = Volume of distribution at steady state in orally dosed dog; type: ADME, organism-based, Canis lupus familiaris; conditions: in vivo, po
[32] = Volume of distribution at steady state in orally dosed monkey; type: ADME, organism-based, Macaca mulatta; conditions: rhesus monkey, in vivo, po
[33] = Drug concentration in brain of monoiodoacetate-induced acute Sprague-Dawley rat model of osteoarthritis at 30 mg/kg, po administered for 5 days and measured after 15 mins; type: ADME, organism-based; conditions: time 5 day, read-out: Ct
[34] = molecular target: T1, Sodium channel protein type 9 subunit alpha; test: Inhibition of recombinant human Nav 1.7 expressed in HEK293F cells at […] holding potential by manual voltage clamp electrophysiology method; type: cell-based
[35] = Clearance in iv dosed monkey; type: ADME, organism-based, Macaca mulatta; conditions: rhesus monkey, in vivo
[36] = Drug concentration in plasma of monoiodoacetate-induced chronic Sprague-Dawley rat model of osteoarthritis at 3 mg/kg, po administered twice for 1 day; type: ADME, organism-based
[37] = species: Rattus norvegicus; test: animal or person; conditions: Sprague-Dawley
[38] = Drug concentration in plasma of monoiodoacetate-induced chronic Sprague-Dawley rat model of osteoarthritis at 1 mg/kg, po administered twice daily for 5 days; type: ADME, organism-based; conditions: time 5 day
[39] = Drug concentration in plasma of monoiodoacetate-induced chronic Sprague-Dawley rat model of osteoarthritis at 10 mg/kg, po administered twice for 1 day; type: ADME, organism-based
[40] = Half-life in orally dosed monkey; type: ADME, organism-based, Macaca mulatta; conditions: rhesus monkey, in vivo; route po
[41] = Drug concentration in brain of monoiodoacetate-induced acute Sprague-Dawley rat model of osteoarthritis at 10 mg/kg, po administered for 5 days and measured after 15 mins; type: ADME, organism-based; conditions: time 5 day, read-out: Ct
[42] = Cardiotoxicity in anesthetized rat CV model assessed as effect on PR interval upto 31 uM by ECG analysis; type: toxicity
[43] = Oral bioavailability in dog; type: ADME, organism-based, Canis lupus familiaris; conditions: in vivo
[44] = Cardiotoxicity in conscious dog CV model assessed as effect on QRS complex upto 47 uM by ECG analysis; type: toxicity, Canis lupus familiaris
[45] = Drug concentration in plasma of monoiodoacetate-induced acute Sprague-Dawley rat model of osteoarthritis at 30 mg/kg, po administered for 5 days and measured after 15 mins; type: ADME, organism-based; conditions: time 5 day
[46] = Drug concentration in brain of monoiodoacetate-induced chronic Sprague-Dawley rat model of osteoarthritis at 10 mg/kg, po administered twice daily for 5 days; type: ADME, organism-based; conditions: time 5 day, read-out: Ct
[47] = Oral bioavailability in monkey; type: ADME, organism-based, Macaca mulatta; conditions: rhesus monkey, in vivo
[48] = Drug concentration in plasma of monoiodoacetate-induced acute Sprague-Dawley rat model of osteoarthritis at 10 mg/kg, po administered for 5 days and measured after 15 mins; type: ADME, organism-based; conditions: time 5 day
[49] = Drug concentration in plasma of monoiodoacetate-induced chronic Sprague-Dawley rat model of osteoarthritis at 3 mg/kg, po administered twice daily for 5 days; type: ADME, organism-based; conditions: time 5 day
[50] = Inhibition of rat Nav 1.7 by FRET based membrane potential assay
[51] = Drug concentration in brain of monoiodoacetate-induced acute Sprague-Dawley rat model of osteoarthritis at 3 mg/kg, po administered for 5 days and measured after 15 mins; type: ADME, organism-based; conditions: time 5 day, read-out: Ct
[52] = Drug concentration in rat plasma assessed as free fraction; type: ADME, cell-free
[53] = species: Rattus norvegicus; test: cells; conditions: Sprague-Dawley
[54] = Drug concentration in plasma of monoiodoacetate-induced acute Sprague-Dawley rat model of osteoarthritis at 3 mg/kg, po administered for 5 days and measured after 15 mins; type: ADME, organism-based; conditions: time 5 day
[55] = Drug concentration in plasma of monoiodoacetate-induced chronic Sprague-Dawley rat model of osteoarthritis at 1 mg/kg, po administered twice for 1 day; type: ADME, organism-based
[56] = Cardiotoxicity in anesthetized rat CV model assessed as effect on QRS complex upto 31 uM by ECG analysis; type: toxicity
[57] = Drug concentration in plasma of monoiodoacetate-induced chronic Sprague-Dawley rat model of osteoarthritis at 10 mg/kg, po administered twice daily for 5 days; type: ADME, organism-based; conditions: time 5 day
[58] = Effect on locomotor activity in rat by locomotor assay; type: toxicity
[59] = rat, in vivo, po
[60] = species: Rattus norvegicus; test: animal or person; conditions: Sprague-Dawley; remark: listed apart in the source
[61] = Half-life in orally dosed dog; type: ADME, organism-based, Canis lupus familiaris; conditions: in vivo, route po
[62] = Drug concentration in rat brain assessed as free fraction; type: ADME, tissue-based
[63] = Drug concentration in plasma of monoiodoacetate-induced chronic Sprague-Dawley rat model of osteoarthritis at 0.3 mg/kg, po administered twice daily for 5 days; type: ADME, organism-based; conditions: time 5 day
[64] = Drug concentration in brain of monoiodoacetate-induced chronic Sprague-Dawley rat model of osteoarthritis at 3 mg/kg, po administered twice daily for 5 days; type: ADME, organism-based; conditions: time 5 day, read-out: Ct
[65] = Drug concentration in brain of monoiodoacetate-induced chronic Sprague-Dawley rat model of osteoarthritis at 1 mg/kg, po administered twice daily for 5 days; type: ADME, organism-based; conditions: time 5 day, read-out: Ct
[66] = Effect on locomotor activity in rat by rotorod test; type: toxicity
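For logD in this document: distribution coefficient quantified using high-throughput LC-MS.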
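For solubility in this document: determined using a high-throughput solubility method.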

T1 sequence (Q15858 whole entry, looked up): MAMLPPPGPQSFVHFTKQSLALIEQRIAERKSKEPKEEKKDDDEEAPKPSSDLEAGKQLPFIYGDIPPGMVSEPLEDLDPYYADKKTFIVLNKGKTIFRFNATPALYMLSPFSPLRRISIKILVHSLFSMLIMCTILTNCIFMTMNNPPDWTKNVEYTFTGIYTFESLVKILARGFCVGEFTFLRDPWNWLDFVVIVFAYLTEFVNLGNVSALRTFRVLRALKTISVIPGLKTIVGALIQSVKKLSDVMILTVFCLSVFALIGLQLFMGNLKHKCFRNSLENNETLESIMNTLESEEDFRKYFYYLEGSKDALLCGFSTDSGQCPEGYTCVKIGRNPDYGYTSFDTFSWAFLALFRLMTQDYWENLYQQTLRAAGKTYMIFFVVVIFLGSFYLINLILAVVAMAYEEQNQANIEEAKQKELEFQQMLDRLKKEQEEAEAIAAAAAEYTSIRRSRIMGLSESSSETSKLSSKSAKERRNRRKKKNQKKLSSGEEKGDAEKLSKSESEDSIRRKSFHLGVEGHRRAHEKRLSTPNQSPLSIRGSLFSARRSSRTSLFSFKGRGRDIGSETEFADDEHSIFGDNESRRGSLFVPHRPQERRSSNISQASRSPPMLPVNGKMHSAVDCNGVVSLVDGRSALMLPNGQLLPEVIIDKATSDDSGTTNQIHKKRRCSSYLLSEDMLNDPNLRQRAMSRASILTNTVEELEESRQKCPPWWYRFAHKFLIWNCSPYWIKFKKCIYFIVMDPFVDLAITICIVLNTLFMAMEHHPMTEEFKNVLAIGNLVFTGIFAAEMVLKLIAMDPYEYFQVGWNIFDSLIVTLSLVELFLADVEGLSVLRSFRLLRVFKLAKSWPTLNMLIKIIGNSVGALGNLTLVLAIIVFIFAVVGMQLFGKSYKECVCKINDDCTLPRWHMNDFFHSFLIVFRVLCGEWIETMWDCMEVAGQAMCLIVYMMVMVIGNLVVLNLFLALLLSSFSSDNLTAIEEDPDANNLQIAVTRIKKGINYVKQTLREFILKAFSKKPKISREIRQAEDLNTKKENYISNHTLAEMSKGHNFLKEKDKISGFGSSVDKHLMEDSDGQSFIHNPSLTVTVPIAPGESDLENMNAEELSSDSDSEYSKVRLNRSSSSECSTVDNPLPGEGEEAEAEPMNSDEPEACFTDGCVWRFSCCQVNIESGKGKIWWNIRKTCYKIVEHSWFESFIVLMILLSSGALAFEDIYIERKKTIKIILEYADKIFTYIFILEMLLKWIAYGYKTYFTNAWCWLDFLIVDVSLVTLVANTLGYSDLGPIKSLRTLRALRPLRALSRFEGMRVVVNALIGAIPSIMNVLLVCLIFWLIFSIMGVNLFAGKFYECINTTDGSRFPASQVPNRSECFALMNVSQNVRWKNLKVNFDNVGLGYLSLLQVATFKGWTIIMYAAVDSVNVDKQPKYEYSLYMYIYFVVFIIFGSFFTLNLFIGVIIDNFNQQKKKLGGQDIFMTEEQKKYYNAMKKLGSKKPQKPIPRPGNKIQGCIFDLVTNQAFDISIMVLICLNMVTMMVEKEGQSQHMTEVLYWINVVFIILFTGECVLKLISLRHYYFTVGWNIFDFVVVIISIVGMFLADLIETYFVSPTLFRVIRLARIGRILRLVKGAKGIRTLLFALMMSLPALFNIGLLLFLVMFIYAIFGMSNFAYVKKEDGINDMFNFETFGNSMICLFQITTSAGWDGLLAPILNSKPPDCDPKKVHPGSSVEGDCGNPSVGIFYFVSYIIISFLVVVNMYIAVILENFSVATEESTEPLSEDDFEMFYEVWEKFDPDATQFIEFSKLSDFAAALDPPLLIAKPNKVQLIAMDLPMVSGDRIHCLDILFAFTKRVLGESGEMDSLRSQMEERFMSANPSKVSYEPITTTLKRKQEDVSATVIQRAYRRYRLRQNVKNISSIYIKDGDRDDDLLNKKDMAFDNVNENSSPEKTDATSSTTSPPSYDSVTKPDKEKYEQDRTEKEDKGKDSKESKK
Chain of Voltage-gated inwardly rectifying potassium channel KCNH2 (Q12809 whole entry): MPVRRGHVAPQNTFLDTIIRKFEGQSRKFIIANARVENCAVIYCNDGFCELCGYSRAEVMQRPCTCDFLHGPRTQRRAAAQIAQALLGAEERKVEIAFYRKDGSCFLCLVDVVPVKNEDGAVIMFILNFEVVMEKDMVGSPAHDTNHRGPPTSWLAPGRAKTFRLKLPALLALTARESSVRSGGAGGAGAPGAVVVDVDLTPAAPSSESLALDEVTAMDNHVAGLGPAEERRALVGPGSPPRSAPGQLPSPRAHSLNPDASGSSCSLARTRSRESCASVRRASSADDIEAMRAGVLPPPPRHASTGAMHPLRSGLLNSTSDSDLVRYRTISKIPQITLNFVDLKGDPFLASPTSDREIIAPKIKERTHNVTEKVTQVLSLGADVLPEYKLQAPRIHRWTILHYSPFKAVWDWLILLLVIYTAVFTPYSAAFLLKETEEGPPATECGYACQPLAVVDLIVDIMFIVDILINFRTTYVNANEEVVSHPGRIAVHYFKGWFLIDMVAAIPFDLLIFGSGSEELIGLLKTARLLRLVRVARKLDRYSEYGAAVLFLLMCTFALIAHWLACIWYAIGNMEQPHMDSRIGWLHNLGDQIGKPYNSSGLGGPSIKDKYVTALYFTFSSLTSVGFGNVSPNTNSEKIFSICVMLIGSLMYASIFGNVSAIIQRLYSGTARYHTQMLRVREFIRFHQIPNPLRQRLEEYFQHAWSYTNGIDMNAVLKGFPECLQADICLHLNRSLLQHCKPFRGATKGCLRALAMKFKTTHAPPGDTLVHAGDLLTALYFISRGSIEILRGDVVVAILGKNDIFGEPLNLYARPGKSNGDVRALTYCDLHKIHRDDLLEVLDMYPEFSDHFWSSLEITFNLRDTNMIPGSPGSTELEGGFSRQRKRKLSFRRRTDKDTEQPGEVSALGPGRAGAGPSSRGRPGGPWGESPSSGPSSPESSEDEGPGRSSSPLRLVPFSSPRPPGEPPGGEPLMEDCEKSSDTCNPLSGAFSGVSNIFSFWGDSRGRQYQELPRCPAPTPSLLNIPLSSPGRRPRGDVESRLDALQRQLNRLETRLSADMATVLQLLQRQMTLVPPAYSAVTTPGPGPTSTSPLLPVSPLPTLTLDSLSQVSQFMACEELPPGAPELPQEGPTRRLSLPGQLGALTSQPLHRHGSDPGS
Chain of Sodium channel protein type 5 subunit alpha (Q14524 whole entry): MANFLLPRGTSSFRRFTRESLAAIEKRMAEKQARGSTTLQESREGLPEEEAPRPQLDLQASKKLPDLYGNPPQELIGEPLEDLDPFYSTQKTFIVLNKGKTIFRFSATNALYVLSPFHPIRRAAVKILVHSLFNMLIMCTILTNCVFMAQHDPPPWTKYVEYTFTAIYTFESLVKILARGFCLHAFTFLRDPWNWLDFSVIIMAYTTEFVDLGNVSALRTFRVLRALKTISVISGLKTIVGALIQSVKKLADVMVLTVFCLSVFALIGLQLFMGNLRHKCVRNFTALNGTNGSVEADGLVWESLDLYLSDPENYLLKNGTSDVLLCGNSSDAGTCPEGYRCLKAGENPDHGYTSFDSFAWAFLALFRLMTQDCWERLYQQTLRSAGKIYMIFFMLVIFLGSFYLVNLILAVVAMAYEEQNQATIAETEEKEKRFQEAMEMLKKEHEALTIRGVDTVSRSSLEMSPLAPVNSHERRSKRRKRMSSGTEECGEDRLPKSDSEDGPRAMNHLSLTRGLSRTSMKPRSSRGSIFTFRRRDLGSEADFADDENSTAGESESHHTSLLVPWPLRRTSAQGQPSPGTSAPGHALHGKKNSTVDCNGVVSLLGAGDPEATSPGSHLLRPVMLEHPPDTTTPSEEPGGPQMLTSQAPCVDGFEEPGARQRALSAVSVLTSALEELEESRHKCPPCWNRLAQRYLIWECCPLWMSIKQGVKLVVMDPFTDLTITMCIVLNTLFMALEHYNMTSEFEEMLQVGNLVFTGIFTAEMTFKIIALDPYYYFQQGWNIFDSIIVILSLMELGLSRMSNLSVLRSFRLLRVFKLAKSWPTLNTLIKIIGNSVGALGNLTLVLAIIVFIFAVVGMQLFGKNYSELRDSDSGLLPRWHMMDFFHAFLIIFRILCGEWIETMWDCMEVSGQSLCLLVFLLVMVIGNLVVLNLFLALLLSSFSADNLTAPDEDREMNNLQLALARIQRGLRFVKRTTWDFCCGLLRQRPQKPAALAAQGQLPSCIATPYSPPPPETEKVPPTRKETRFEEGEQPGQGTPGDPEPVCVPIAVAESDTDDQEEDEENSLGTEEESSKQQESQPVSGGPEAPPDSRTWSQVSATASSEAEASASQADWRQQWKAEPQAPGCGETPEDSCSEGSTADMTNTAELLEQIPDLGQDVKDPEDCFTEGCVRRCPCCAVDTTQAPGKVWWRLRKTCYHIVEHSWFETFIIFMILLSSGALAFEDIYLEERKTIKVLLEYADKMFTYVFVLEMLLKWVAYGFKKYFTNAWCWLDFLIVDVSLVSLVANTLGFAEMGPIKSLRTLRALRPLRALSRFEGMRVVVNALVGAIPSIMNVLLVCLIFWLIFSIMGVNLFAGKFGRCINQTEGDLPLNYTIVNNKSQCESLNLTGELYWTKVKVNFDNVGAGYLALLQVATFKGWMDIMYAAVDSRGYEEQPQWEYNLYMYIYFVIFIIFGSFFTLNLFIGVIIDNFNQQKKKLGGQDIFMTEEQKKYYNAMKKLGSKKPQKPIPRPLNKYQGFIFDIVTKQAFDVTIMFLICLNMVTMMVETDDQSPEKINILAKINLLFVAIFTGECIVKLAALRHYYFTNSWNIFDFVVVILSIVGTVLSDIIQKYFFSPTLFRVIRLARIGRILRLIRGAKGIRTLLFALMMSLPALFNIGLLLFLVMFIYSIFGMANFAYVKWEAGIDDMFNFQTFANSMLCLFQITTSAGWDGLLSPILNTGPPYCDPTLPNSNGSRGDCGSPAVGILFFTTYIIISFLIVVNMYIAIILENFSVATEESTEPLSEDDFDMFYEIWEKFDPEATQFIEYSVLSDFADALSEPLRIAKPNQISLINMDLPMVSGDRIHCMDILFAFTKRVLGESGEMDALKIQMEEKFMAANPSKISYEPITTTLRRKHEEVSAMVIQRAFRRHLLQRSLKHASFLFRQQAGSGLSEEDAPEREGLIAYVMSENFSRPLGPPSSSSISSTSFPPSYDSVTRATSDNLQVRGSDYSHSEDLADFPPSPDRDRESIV

- solubility [4]: 29 µM (≈ 12.7 µg/mL)
- bioavailability [5]: 80.4%
- Papp [6]: 18 ×10⁻⁶ cm/s
SMILES: CS(=O)(=O)CCNC(=O)c1ccc2cc(Oc3ccc(C(F)(F)F)cn3)ccc2n1
- Activity [1]: 35%
- pIC50 [2]: 4.52
- Activity [3]: 68%
- Activity [7]: 63%

SMILES: CN1CCN(C(=O)COc2ccc3cc(Oc4ccccn4)ccc3n2)CC1
- pIC50 [8]: 5.74
- logD [9]: 2.9
- clearance [10]: 54 mL/min/kg
- pIC50 [2]: 4.52
- Papp [11]: 33.4 ×10⁻⁶ cm/s
- MPE [12]: 59%
- CLH [13]: < 33 mL/min/kg
- Cp [14]: 110 ng/mL
- pIC50 [15]: 4.70
- Cp [16]: 1930 ng/mL
- CLH [17]: 567 mL/min/kg
- pIC50 [18]: 5.50
- MPE [19]: 30%
- half-life [20]: 3.38 h
- MPE [21]: 10%
- solubility [4]: 176 µM (≈ 66.6 µg/mL)
- bioavailability [5]: 10%
- efflux ratio [22]: 3.7
- Kp uu [23]: 0.88
- Cp [24]: 400 ng/mL
- pIC50 [25]: 4.48

- clearance [26]: 5 mL/min/kg
- clearance [10]: 7.17 mL/min/kg
- concentration at 24 h [28]: 70 ng/mL
- Cp [29]: 11200 ng/mL
- concentration at 120 h [30]: 110 ng/mL
- Vdss [31]: 4.1 L/kg
- Vdss [32]: 3.6 L/kg
- concentration at 120 h [33]: 10800 ng/mL
- pIC50 [34]: 5.96
- clearance [35]: 5 mL/min/kg
- concentration at 24 h [36]: 750 ng/mL
- EC50 [37]: 0.24 µg/mL (≈ 0.592 µM)
- concentration at 120 h [38]: 480 ng/mL
- concentration at 24 h [39]: 3440 ng/mL
- half-life [40]: 7.6 h
- concentration at 120 h [41]: 5240 ng/mL
- pIC50 [18]: 5.50
- bioavailability [43]: 85%
- concentration at 120 h [45]: 10000 ng/mL
- concentration at 120 h [46]: 4230 ng/mL
- bioavailability [47]: 110%
- half-life [20]: 5.44 h
- concentration at 120 h [48]: 5180 ng/mL
- concentration at 120 h [49]: 1480 ng/mL
- solubility [4]: 84 µM (≈ 34 µg/mL)
- bioavailability [5]: 80%
- pIC50 [50]: 5.54
- concentration at 120 h [51]: 1530 ng/mL
- fraction unbound [52]: 0.05
- EC50 [53]: 4 µg/mL (≈ 9.87 µM)
- concentration at 120 h [54]: 1410 ng/mL
- Kp uu [23]: 0.29
- concentration at 24 h [55]: 270 ng/mL
- concentration at 120 h [57]: 5480 ng/mL
- Vdss [59]: 4.06 L/kg
- EC50 [60]: 1.4 µg/mL (≈ 3.45 µM)
- half-life [61]: 13.4 h
- fraction unbound [62]: 0.015
- concentration at 120 h [63]: 140 ng/mL
- concentration at 120 h [64]: 1140 ng/mL
- concentration at 120 h [65]: 260 ng/mL
SMILES: O=C(c1ccc2cc(Oc3ccc(C(F)(F)F)cn3)ccc2n1)N1CC[C@@H](F)C1
- Activity [27]: Non-Toxic
- Activity [42]: Non-Toxic
- Activity [44]: Non-Toxic
- Activity [56]: Non-Toxic
- Activity [58]: Non-Toxic
- pIC50 [25]: 4.48
- Activity [66]: Non-Toxic
